The values below come from patent US10150771B2, “Triazolopyrazinones as PDE1 inhibitors” (H. Lundbeck A/S, priority 2014, dated 2018).

In general, IC50 refers to the concentration needed to halve the response being measured. The term inhibition denotes the drop in the measured response relative to a control, in per cent.

What all share (assay type): biochemical
For one assay, the target named is PDE1C (Homo sapiens, UniProt Q14123). Kind of assay: PDE1 inhibition assay (SPA), PDE1C. Particulars: for IC50: concentration required to reach 50% inhibition of the enzyme, 15 nM tritium labelled cAMP, read-out: PDE1C inhibition (nM or %): IC50. The protocol:
(§1) PDE1 Inhibition Assay PDE1A, PDE1B and PDE1C assays were performed as follows: the assays were performed in 60 μL samples containing a fixed amount of the PDE1 enzym1 (sufficient to convert 20-25% of the cyclic nucleotide substrate), a buffer (50 mM HEPES pH 7.6; 10 mM MgCl2; 0.02% Tween20), 0.1 mg/ml BSA, 15 nM tritium labelled cAMP and varying amounts of inhibitors. Reactions were initiated by addition of the cyclic nucleotide substrate, and reactions were allowed to proceed for 1 h at room temperature before being terminated through mixing with 20 μL (0.2 mg) yttrium silicate SPA beads (PerkinElmer). The beads were allowed to settle for 1 h in the dark before the plates were counted in a Wallac 1450 Microbeta counter. The measured signals were converted to activity relative to an uninhibited control (100%) and IC50 values were calculated using XIFit (model 205, IDBS).

The target in the next assay is PDE1B (Homo sapiens, UniProt Q01064). Kind of assay: PDE1 inhibition assay (SPA), PDE1B. Particulars: for IC50: concentration required to reach 50% inhibition of the enzyme, 15 nM tritium labelled cAMP, read-out: PDE1B inhibition (nM or %): IC50; for inhibition at 10 µM: 1 h, % inhibition of the enzyme at a concentration of 10 micro molar of the compound, read-out: PDE1B inhibition (nM or %): % inhib. On the procedure: as §1

Another assay concerns the target PDE1A (Homo sapiens, UniProt P54750). Kind of assay: PDE1 inhibition assay (SPA), PDE1A. Particulars: for IC50: concentration required to reach 50% inhibition of the enzyme, 15 nM tritium labelled cAMP, read-out: PDE1A inhibition (nM or %): IC50; for inhibition at 10 µM: 1 h, read-out: PDE1A inhibition (nM or %): % inhib. On the procedure: as §1
Where [1] appears, read: % inhibition of the enzyme at a concentration of 10 micro molar of the compound.

Sequence of PDE1C (Q14123 whole entry): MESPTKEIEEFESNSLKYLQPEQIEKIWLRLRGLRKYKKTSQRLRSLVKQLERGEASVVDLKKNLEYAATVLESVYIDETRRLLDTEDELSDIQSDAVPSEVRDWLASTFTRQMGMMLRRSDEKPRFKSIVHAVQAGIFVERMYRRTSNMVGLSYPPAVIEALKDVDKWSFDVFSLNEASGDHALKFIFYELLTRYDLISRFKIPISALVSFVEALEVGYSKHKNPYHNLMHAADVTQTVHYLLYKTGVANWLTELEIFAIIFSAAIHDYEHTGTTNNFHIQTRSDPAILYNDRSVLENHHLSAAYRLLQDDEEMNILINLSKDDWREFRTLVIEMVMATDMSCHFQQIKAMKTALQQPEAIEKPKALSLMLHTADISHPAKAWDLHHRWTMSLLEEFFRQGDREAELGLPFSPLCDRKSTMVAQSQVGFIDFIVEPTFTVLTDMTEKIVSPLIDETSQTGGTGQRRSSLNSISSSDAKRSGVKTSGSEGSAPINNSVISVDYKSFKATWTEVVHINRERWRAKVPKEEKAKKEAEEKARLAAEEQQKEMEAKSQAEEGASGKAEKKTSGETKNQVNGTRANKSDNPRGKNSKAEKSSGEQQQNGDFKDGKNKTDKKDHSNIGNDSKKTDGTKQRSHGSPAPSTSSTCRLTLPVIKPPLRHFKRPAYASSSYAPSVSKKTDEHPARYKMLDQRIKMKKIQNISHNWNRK
Sequence of PDE1B (Q01064 whole entry): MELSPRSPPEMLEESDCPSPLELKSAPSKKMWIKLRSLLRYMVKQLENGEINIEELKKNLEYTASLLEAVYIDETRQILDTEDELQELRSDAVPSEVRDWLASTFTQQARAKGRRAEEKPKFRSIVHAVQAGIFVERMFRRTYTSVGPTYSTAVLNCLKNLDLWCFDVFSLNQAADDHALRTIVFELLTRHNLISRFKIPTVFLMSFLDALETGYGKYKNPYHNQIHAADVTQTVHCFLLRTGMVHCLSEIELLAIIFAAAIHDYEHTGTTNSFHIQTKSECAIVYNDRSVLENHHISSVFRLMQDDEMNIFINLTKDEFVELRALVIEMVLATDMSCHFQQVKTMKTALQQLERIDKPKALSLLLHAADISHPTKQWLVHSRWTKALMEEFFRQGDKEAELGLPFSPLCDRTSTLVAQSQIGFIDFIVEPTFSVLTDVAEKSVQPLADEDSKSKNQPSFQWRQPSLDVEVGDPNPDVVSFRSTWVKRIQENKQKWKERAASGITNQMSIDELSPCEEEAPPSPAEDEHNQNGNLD
Sequence of PDE1A (P54750 whole entry): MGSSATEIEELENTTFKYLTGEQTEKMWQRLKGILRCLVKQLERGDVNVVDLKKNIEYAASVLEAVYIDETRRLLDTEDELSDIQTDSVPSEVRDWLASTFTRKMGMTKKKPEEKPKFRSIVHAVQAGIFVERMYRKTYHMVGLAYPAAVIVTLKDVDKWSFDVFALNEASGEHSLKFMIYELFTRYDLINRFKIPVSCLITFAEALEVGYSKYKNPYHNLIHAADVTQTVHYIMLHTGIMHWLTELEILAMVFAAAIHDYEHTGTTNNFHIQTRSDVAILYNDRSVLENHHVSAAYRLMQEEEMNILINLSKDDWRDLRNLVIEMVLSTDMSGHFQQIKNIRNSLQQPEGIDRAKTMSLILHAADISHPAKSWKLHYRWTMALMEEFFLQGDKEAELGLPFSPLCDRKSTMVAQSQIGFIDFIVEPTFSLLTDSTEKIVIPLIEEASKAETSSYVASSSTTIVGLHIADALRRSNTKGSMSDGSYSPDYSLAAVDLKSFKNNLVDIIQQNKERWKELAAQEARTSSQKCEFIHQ

As for `CCCc1nnc2c(=O)n(CC3CCCCC3C)ccn12` (mixture of isomers) [7-((2-methylcyclohexyl)methyl)-3-propyl-[1,2,4]triazolo[4,3-a]pyrazin-8(7H)-one], the IC50 was determined as 240 nM on PDE1C, 260 nM on PDE1B and 320 nM at PDE1A.
Take `CCCc1nnc2c(=O)n(CC3CCCC(C)C3)ccn12` (mixture of isomers) [7-((3-methylcyclohexyl)methyl)-3-propyl-[1,2,4]triazolo[4,3-a]pyrazin-8(7H)-one]: the concentration for half-maximal inhibition (IC50) at PDE1C was 83 nM; on PDE1B it was 230 nM; on PDE1A, 320 nM.
For `CCCc1nnc2c(=O)n(CC3CCC(F)CC3)ccn12` (mixture of isomers) [7-((4-fluorocyclohexyl)methyl)-3-propyl-[1,2,4]triazolo[4,3-a]pyrazin-8(7H)-one], the figures for the half-inhibitory concentration (IC50) on PDE1C, at PDE1B and at PDE1A were 610 nM, 560 nM and 660 nM, respectively.
Regarding `CCCc1nnc2c(=O)n(CC3CCC(C)CC3)ccn12` (racemic) [7-((4-methylcyclohexyl)methyl)-3-propyl-[1,2,4]triazolo[4,3-a]pyrazin-8(7H)-one], the IC50 was 65 nM on PDE1C, 53 nM on PDE1B and 83 nM at PDE1A.
For the compound `CCCc1nnc2c(=O)n(Cc3cccc(F)c3)cc([C@H]3CCOC3)n12` (single isomer, unassigned), the IC50 on PDE1C amounted to 260 nM; on PDE1B, 2300 nM; at PDE1A it was 1610 nM.
For `CCCc1nnc2c(=O)n(Cc3cccc(F)c3)c([C@H]3CCOC3)cn12` (single isomer, unassigned), the half-inhibitory concentration (IC50) on PDE1C worked out at 290 nM; on PDE1B, 1800 nM; at PDE1A, 2980 nM.
For `CCCc1nnc2c(=O)n(Cc3cccc(F)c3)cc([C@@H]3CCOC3)n12` (single isomer, unassigned) the same measures were 260 nM, 1000 nM and 1780 nM.
For `CCCc1nnc2c(=O)n(Cc3cccc(F)c3)c([C@@H]3CCOC3)cn12` (single isomer, unassigned) the same measures were 270 nM, 1100 nM and 1100 nM.
For the compound `CCCc1nnc2c(=O)n(CC3CCOC3)ccn12` (single isomer, unassigned) [3-Propyl-7-((tetrahydrofuran-3-yl)methyl)-[1,2,4]triazolo[4,3-a]pyrazin-8(7H)-one], on PDE1B, the inhibition at 10 µM came out at 67% and the concentration for half-maximal inhibition (IC50) turned out to be 4000 nM.
For `O=c1c2nnc(CC3CCCO3)n2ccn1Cc1cccc(F)c1` (single isomer, unassigned) [7-(3-Fluorobenzyl)-3-((tetrahydrofuran-2-yl)methyl)-[1,2,4]t] [7-(3-Fluorobenzyl)-3-((tetrahydrofuran-2-yl)methyl)-[1,2,4]triazolo[4,3-a]pyrazin-8(7H)-one], on PDE1A (setting [1]), the “PDE1A inhibition (nM or %): % inhib” value is 49%.
For `O=c1c2nnc(CC3CCCO3)n2ccn1Cc1cccc(F)c1` (single isomer, unassigned) [7-(3-Fluorobenzyl)-3-((tetrahydrofuran-2-yl)methyl)-[1,2,4]triazolo[4,3-a]pyrazin-8(7H)-one], the inhibition at 10 µM at PDE1B and at PDE1A (setting [1]) was 67% in each case. For the same compound, the IC50 at PDE1B was determined as 3700 nM.
For the compound `O=c1c2nnc(C3CCCCO3)n2ccn1Cc1cccc(F)c1` (single isomer, unassigned) [7-(3-Fluorobenzyl)-3-(tetrahydro-2H-pyran-2-yl)-[1,2,4]triaz] [7-(3-Fluorobenzyl)-3-(tetrahydro-2H-pyran-2-yl)-[1,2,4]triazolo[4,3-a]pyrazin-8(7H)-one], at PDE1A, the IC50 worked out at 3200 nM.
With `O=c1c2nnc(C3CCCCO3)n2ccn1Cc1cccc(F)c1` (single isomer, unassigned) [7-(3-Fluorobenzyl)-3-(tetrahydro-2H-pyran-2-yl)-[1,2,4]triazolo[4,3-a]pyrazin-8(7H)-one], the IC50 at PDE1A came out at 3200 nM.
Take `O=c1c2nnc(C3CCCOC3)n2ccn1Cc1cccc(F)c1` (single isomer, unassigned) [7-(3-Fluorobenzyl)-3-(tetrahydro-2H-pyran-3-yl)-[1,2,4]triaz] [7-(3-Fluorobenzyl)-3-(tetrahydro-2H-pyran-3-yl)-[1,2,4]triazolo[4,3-a]pyrazin-8(7H)-one]: the concentration for half-maximal inhibition (IC50) at PDE1A is 1800 nM.
Regarding `O=c1c2nnc(C3CCCOC3)n2ccn1Cc1cccc(F)c1` (single isomer, unassigned) [7-(3-Fluorobenzyl)-3-(tetrahydro-2H-pyran-3-yl)-[1,2,4]triazolo[4,3-a]pyrazin-8(7H)-one], at PDE1A, the IC50 turned out to be 1800 nM.
Consider `O=c1c2nnc(C3CCOC3)n2ccn1Cc1cccc(F)c1` (single isomer, unassigned) [7-(3-Fluorobenzyl)-3-(tetrahydrofuran-3-yl)-[1,2,4]triazolo[4,3-a]pyrazin-8(7H)-one], for which the IC50 at PDE1C is 240 nM.
Take `O=c1c2nnc(C3CCOC3)n2ccn1Cc1cccc(F)c1` (single isomer, unassigned) [7-(3-Fluorobenzyl)-3-(tetrahydrofuran-3-yl)-[1,2,4]triazolo[] [7-(3-Fluorobenzyl)-3-(tetrahydrofuran-3-yl)-[1,2,4]triazolo[4,3-a]pyrazin-8(7H)-one]: at PDE1C, the IC50 was determined as 240 nM.
For `CCCc1nnc2c(=O)n(CC3CCC(C)CC3)ccn12` (single isomer, unassigned) [7-(((1 r,4r)-4-methylcyclohexyl)methyl)-3-propyl-[1,2,4]triazolo[4,3-a]pyrazin-8(7H)-one], the IC50 on PDE1C is 120 nM; on PDE1B, 40 nM; on PDE1A, 79 nM.
Turning to `CCCc1nnc2c(=O)n(CC3CCC(C)CC3)ccn12` (single isomer, unassigned) [7-(((1s,4s)-4-methylcyclohexyl)methyl)-3-propyl-[1,2,4]triazolo[4,3-a]pyrazin-8(7H)-one], the half-maximal inhibitory concentration (IC50) at PDE1C worked out at 36 nM; on PDE1B it was 24 nM; on PDE1A, 111 nM.
Take `CC(F)(F)c1nnc2c(=O)n(Cc3cccc(F)c3)ccn12` [3-(1,1-Difluoroethyl)-7-(3-fluorobenzyl)-[1,2,4]triazolo[4,3-a]pyrazin-8(7H)-one]: the IC50 at PDE1C came out at 550 nM; on PDE1B it was 2700 nM; on PDE1A, 2500 nM.
In the case of `O=c1c2nnc(C3CCCCC3)n2ccn1Cc1cccc(F)c1` [3-Cyclohexyl-7-(3-fluorobenzyl)-[1,2,4]triazolo[4,3-a]pyrazin-8(7H)-one], the IC50 is 120 nM on PDE1C, 590 nM on PDE1B and 810 nM at PDE1A.
Turning to `O=c1c2nnc(C3CCCC3)n2ccn1Cc1cccc(F)c1` [3-Cyclopentyl-7-(3-fluorobenzyl)-[1,2,4]triazolo[4,3-a]pyrazin-8(7H)-one], the half-maximal inhibitory concentration (IC50) at PDE1C stood at 800 nM; on PDE1B, 290 nM; on PDE1A, 420 nM.
For the compound `O=c1c2nnc(C3CC3)n2ccn1Cc1cccc(F)c1` [3-Cyclopropyl-7-(3-fluorobenzyl)-[1,2,4]triazolo[4,3-a]pyrazin-8(7H)-one], the half-inhibitory concentration (IC50) was 210 nM on PDE1C, 780 nM at PDE1B and 500 nM at PDE1A.
`CCCc1nnc2c(=O)n(Cc3ccccc3C(F)(F)F)ccn12` [3-Propyl-7-(2-(trifluoromethyl)benzyl)-[1,2,4]triazolo[4,3-a]pyrazin-8(7H)-one]: the “PDE1C inhibition (nM or %): % inhib” value on PDE1C (setting [1]) worked out at 41%. For the same compound, the inhibition at 10 µM on PDE1B amounted to 46%; on PDE1A (setting [1]) it was 44%.
Take `CCCc1nnc2c(=O)n(Cc3ccc(C(F)(F)F)cc3)ccn12` [3-Propyl-7-(4-(trifluoromethyl)benzyl)-[1,2,4]triazolo[4,3-a]pyrazin-8(7H)-one]: the figures for the IC50 at PDE1C, on PDE1B and at PDE1A were 2100 nM, 570 nM and 1200 nM, respectively.
`CCCc1nnc2c(=O)n(CC3CCOCC3)ccn12` [3-Propyl-7-((tetrahydro-2H-pyran-4-yl)methyl)-[1,2,4]triazolo[4,3-a]pyrazin-8(7H)-one]: on PDE1C, the IC50 was 1600 nM. The inhibition at 10 µM at PDE1B amounted to 47%; on PDE1A (setting [1]), 42%.
As for `CCCc1nnc2c(=O)n(CC3CCC4(CC3)CC4)ccn12` [3-propyl-7-(spiro[2.5]octan-6-ylmethyl)-[1,2,4]triazolo[4,3-a]pyrazin-8(7H)-one], the concentration for half-maximal inhibition (IC50) is 92 nM on PDE1C, 53 nM on PDE1B and 86 nM at PDE1A.
As to `CCCc1nnc2c(=O)n(Cc3cccc(F)c3)cc(Br)n12` [5-bromo-7-(3-fluorobenzyl)-3-propyl-[1,2,4]triazolo[4,3-a]pyrazin-8(7H)-one], the half-maximal inhibitory concentration (IC50) on PDE1C is 72 nM; at PDE1B, 180 nM; on PDE1A, 149 nM.
Turning to `CCCc1nnc2c(=O)n(Cc3cccc(F)c3)cc(CC)n12` [5-ethyl-7-(3-fluorobenzyl)-3-propyl-[1,2,4]triazolo[4,3-a]pyrazin-8(7H)-one], the figures for the IC50 at PDE1C, at PDE1B and at PDE1A were 180 nM, 510 nM and 858 nM, respectively.
